Where “and” joins values, the source holds several entries; their conditions need not be identical. Equal values may be shown once. Read-outs that look alike come from different tables or passages of the source. Marks after values point to notes of the source that are not given here.
Key:
[1] = SUL-150 levels in plasma, lung and right ventricle (LC-MS/MS); type: in vivo, rat; settings: for concentration at 4 weeks / concentration at 28 days: rat
Protocol: The administration of vehicle and SUL-150 started 7 days post-monocrotaline injection and was performed by the i.p. implantation of osmotic minipumps (Alzet model #2004, Durect Corp., Cupertino, CA, USA) at the time of aortocaval shunt placement. The Lynch coil method was used to circumvent compatibility issues with the osmotic minipump reservoir as described previously. Vehicle (dimethyl sulfoxide (DMSO) or SUL-150 ((R)-(6-hydroxy-2,5,7,8-tetramethylchroman-2-yl)(piperazin-1-yl)methanone, 0.9 M in DMSO, Sulfateq BV, Groningen, The Netherlands) was administered at a flow rate of 0.25 µL·h^−1, accumulating to an approximate dose of 6 mg·kg^−1·day^−1 SUL-150 in a 300 g rat. Animals were weighed, watched for dyspnea, cyanosis, and oedema, and sacrificed preterm when a 15% weight loss or debilitating dyspnea occurred.
Measurement of SUL-150 levels in plasma and tissue homogenates was performed by liquid chromatography and mass spectrometry. Plasma or tissue homogenates were supplemented with acetonitrile and sonicated, followed by centrifugation at 14,000× g to liberate SUL-150 from the samples and pellet protein precipitates. Tissue samples were subjected to additional solid-phase extraction using an SPEStrata C-18 cartridge (100 mg, 55 µm, 70 Å, Phenomenex, Torrance, CA, USA), prepared with 1 mL methanol followed by 1 mL water. Analytes were washed by methanol (10%) and eluted in acetonitrile/methanol (3:7 v/v). Eluate was concentrated, and water (20%) was added. Analyte recovery was >95% for plasma samples and >70% for tissue. Liquid chromatography of the samples was performed on a 1260 Infinity HPLC device (Agilent Tech., Santa Clara, CA, USA) using a ZORBAX Eclipse AAA column (3.0 × 150 mm, particle size 3.5 µm) in a reversed-phase setup and a flow rate of 0.5 mL·min^−1 with gradient elution. Solvents consisted of methanol (6%)/acetonitrile (4%) acetate and methanol (54%)/acetonitrile (36%) in water with 0.1% ammonium for solvents A and B, respectively. MS/MS detection was performed on a QQQ 6460 mass spectrometer (Agilent Tech., Santa Clara, CA, USA). Detection was set for a quantifier ion (205.1, CE 25 V) and qualifier ion (190.1, CE 40 V). Gas temperature for MS was set to 300 °C and gas flow was set to 6 L·min^−1. Quantification of the samples was performed using an external standard for calibration. LOD and LOQ were 5 pg·mL^−1 and 17 pg·mL^−1, respectively.

PAH rats = experiment: Heart weights and Fulton index at sacrifice; type: in vivo, rat; settings: ~6 mg·kg^−1·day^−1 i.p. minipump, 28 days
Protocol: Rats were euthanized under 3–5% isoflurane anesthesia by exsanguination by aorta puncture. Hearts, lungs, and pulmonary arteries were harvested and processed for further analyses. The hearts were weighed and dissected into the left atrium, ventricle, right atrium, and ventricle and septum, which were all individually weighted. The Fulton Index was calculated as: Fulton Index=RV/(LV+IVS) , wherein RV and LV are right and left ventricular weights, respectively, and IVS is the weight of the interventricular septum. The right ventricle was cut in half, and one half was fixed in 3.6% formalin and embedded in paraffin. The other half was snap frozen in liquid nitrogen. The left lung lobe was fixed by filling the airways with 3.6% formalin and embedded in paraffin. The right lung lobe was snap frozen in liquid nitrogen.

[2] = individual PAH rats at sacrifice, ~6 mg·kg^−1·day^−1 i.p. minipump
[3] = plasma, ip, 6 mg·kg^−1·day^−1, mean of PAH rats at sacrifice, ~6 mg·kg^−1·day^−1 i.p. minipump, read-out: mean concentration of SUL-150 in blood plasma

Cc1c(C)c2c(c(C)c1O)CC[C@](C)(C(=O)N1CCNCC1)O2 [SUL-150, (R)-(6-hydroxy-2,5,7,8-tetramethylchroman-2-yl)(piperazin-1-yl)methanone]
SUL-150 concentration, Lung Tissue [1, 2]: 35.56 pg/mg and 10.21 pg/mg and 14.26 pg/mg and 25.74 pg/mg and 26.09 pg/mg and 53.94 pg/mg
SUL-150 concentration, Plasma [1, 2]: 93.16 ng/mL and 3.31 ng/mL and 18.36 ng/mL and 4.42 ng/mL and 18.81 ng/mL and 43.90 ng/mL
SUL-150 concentration, Right Ventricle [1, 2]: 13.49 pg/mg and 29.91 pg/mg and 23.67 pg/mg and 16.80 pg/mg and 21.76 pg/mg and 143.68 pg/mg
concentration at 4 weeks ([1]; lung, ip, 6 mg·kg^−1·day^−1, mean of PAH rats at sacrifice, ~6 mg·kg^−1·day^−1 i.p. minipump, read-out: mean concentration of SUL-150 in lung): 27.6 ± 15.8 ng/g
concentration at 28 days ([1]; plasma, intraperitoneal, 6 mg·kg^−1·day^−1, range over PAH rats at sacrifice, read-out: plasma level of SUL-150, range): 3.3 to 93.2 ng/mL
concentration at 4 weeks [1, 3]: 30.3 ± 34.1 ng/mL
concentration at 28 days [1, 3]: 30.3 ng/mL
concentration at 4 weeks ([1]; right ventricle, ip, 6 mg·kg^−1·day^−1, mean of PAH rats at sacrifice, ~6 mg·kg^−1·day^−1 i.p. minipump, read-out: mean concentration of SUL-150 in right ventricle): 41.5 ± 50.4 ng/g
Heart weight (relative to body weight) (PAH rats): 4.37 ± 0.66 ^a mg·g^−1
IVS weight (relative to body weight) (PAH rats): 0.81 ± 0.22 mg/g
LA weight (relative to body weight) (PAH rats): 0.23 ± 0.11 ^a mg·g^−1
LV weight (relative to body weight) (PAH rats): 1.60 ± 0.29 ^a mg·g^−1
RA weight (relative to body weight) (PAH rats): 0.38 ± 0.12 ^a mg·g^−1
RV weight (relative to body weight) (PAH rats): 1.23 ± 0.31 ^a mg·g^−1
Fulton Index (PAH rats; RV/(LV+IVS)): 0.51 ± 0.09 ^a

Reference: PMC12346692, “SUL-150 Limits Vascular Remodeling and Ventricular Failure in Pulmonary Arterial Hypertension” (International Journal of Molecular Sciences, 2025)
